What was measured:
Staphylococcus aureus [1] = experiment: Antibacterial activity against methicillin-resistant Staphylococcus aureus clinical isolate 13 measured after 18 hrs by CLSI based broth microdilution method; type: functional
Staphylococcus aureus [2] = experiment: Antibacterial activity against methicillin-resistant Staphylococcus aureus clinical isolate 14 measured after 18 hrs by CLSI based broth microdilution method; type: functional
Staphylococcus aureus [3] = experiment: Antibacterial activity against methicillin-resistant Staphylococcus aureus clinical isolate 22 measured after 18 hrs by CLSI based broth microdilution method; type: functional
Staphylococcus aureus [4] = experiment: Antibacterial activity against methicillin-resistant Staphylococcus aureus clinical isolate 16 measured after 18 hrs by CLSI based broth microdilution method; type: functional
Staphylococcus aureus [5] = experiment: Antibacterial activity against Staphylococcus aureus ATCC 29213 measured after 18 hrs by CLSI based broth microdilution method; type: functional
Escherichia coli = experiment: Antibacterial activity against Escherichia coli ATCC 25922 measured after 18 hrs by CLSI based broth microdilution method; type: functional
[6] = Hemolytic activity in sheep erythrocyte assessed as hemolysis incubated for 1 hr by absorbance based analysis; type: toxicity, cell-based, Ovis aries; conditions: sheep erythrocytes
Staphylococcus aureus [7] = experiment: Antibacterial activity against methicillin-resistant Staphylococcus aureus clinical isolate 21 measured after 18 hrs by CLSI based broth microdilution method; type: functional
[8] = Selectivity index, ratio of HC50 for hemolytic activity in sheep erythrocyte assessed as hemolysis to MIC for antibacterial activity against Staphylococcus aureus ATCC 29213; type: toxicity; conditions: sheep erythrocytes, read-out: Selectivity Index
Staphylococcus aureus [9] = experiment: Antibacterial activity against methicillin-resistant Staphylococcus aureus clinical isolate 17 measured after 18 hrs by CLSI based broth microdilution method; type: functional
Staphylococcus aureus [10] = experiment: Antibacterial activity against methicillin-resistant Staphylococcus aureus clinical isolate 11 measured after 18 hrs by CLSI based broth microdilution method; type: functional
Staphylococcus aureus [11] = experiment: Antibacterial activity against methicillin-resistant Staphylococcus aureus clinical isolate 12 measured after 18 hrs by CLSI based broth microdilution method; type: functional
Staphylococcus aureus [12] = experiment: Antibacterial activity against methicillin-resistant Staphylococcus aureus clinical isolate 23 measured after 18 hrs by CLSI based broth microdilution method; type: functional
Staphylococcus aureus [13] = experiment: Antibacterial activity against methicillin-resistant Staphylococcus aureus clinical isolate 20 measured after 18 hrs by CLSI based broth microdilution method; type: functional

Compound | MIC (Staphylococcus aureus [1]) [µg/mL] | MIC (Staphylococcus aureus [2]) [µg/mL] | MIC (Staphylococcus aureus [3]) [µg/mL] | MIC (Staphylococcus aureus [4]) [µg/mL] | MIC (Staphylococcus aureus [5]) [µg/mL] | MIC (Escherichia coli) [µg/mL] | HC50 at 1 h [6] [µg/mL] | MIC (Staphylococcus aureus [7]) [µg/mL] | selectivity ratio [8] | MIC (Staphylococcus aureus [9]) [µg/mL] | MIC (Staphylococcus aureus [10]) [µg/mL] | MIC (Staphylococcus aureus [11]) [µg/mL] | MIC (Staphylococcus aureus [12]) [µg/mL] | MIC (Staphylococcus aureus [13]) [µg/mL]
CCCNC(=O)C[N+](C)(C)CCCOc1ccc2ccc(=O)oc2c1CC=C(C)C.[Br-] | 128 | 128 | 128 | 128 | 128 | 128 | > 1280 | 128 | > 10 | 128 | 128 | 64 | 128 | 128
CCNC(=O)C[N+](C)(C)CCCOc1ccc2ccc(=O)oc2c1CC=C(C)C.[Br-] | 128 | 128 | 128 | 128 | 128 | > 128 | > 640 | 128 | > 5 | 128 | 128 | 128 | 128 | 128
CC(C)=CCc1c(OCCC[N+](C)(C)CC(=O)N(CC(C)C)CC(C)C)ccc2ccc(=O)oc12.[Br-] | 4 | 4 | 4 | 4 | 4 | 128 | > 1280 | 4 | > 320 | 4 | 4 | 8 | 4 | 4
CCCCCNC(=O)C[N+](C)(C)CCCOc1ccc2ccc(=O)oc2c1CC=C(C)C.[Br-] | 16 | 16 | 8 | 8 | 16 | 128 | 1200 | 8 | 75.3 | 16 | 16 | 16 | 8 | 8
CCN(CC)C(=O)C[N+](C)(C)CCCOc1ccc2ccc(=O)oc2c1CC=C(C)C.[Br-] | 128 | 128 | 128 | 128 | 128 | 128 | > 1280 | 128 | > 10 | 128 | 128 | 128 | 128 | 128
CCCCCCNC(=O)C[N+](C)(C)CCCCOc1ccc2ccc(=O)oc2c1CC=C(C)C.[Br-] | 4 | 4 | 4 | 2 | 4 | 64 | > 1280 | 4 | > 320 | 4 | 4 | 8 | 2 | 4
CCN(CC)C(=O)C[N+](C)(C)CCCCCOc1ccc2ccc(=O)oc2c1CC=C(C)C.[Br-] | 32 | 32 | 32 | 32 | 32 | 128 | > 1280 | 32 | 40 | 32 | 32 | 64 | 32 | 32
CCCCN(CCCC)C(=O)C[N+](C)(C)CCCCCOc1ccc2ccc(=O)oc2c1CC=C(C)C.[Br-] | 2 | 1 | 1 | 1 | 1 | 128 | 989 | 1 | 989 | 1 | 1 | 2 | 1 | 1
CCCCCNC(=O)C[N+](C)(C)CCCCCOc1ccc2ccc(=O)oc2c1CC=C(C)C.[Br-] | 4 | 2 | 2 | 2 | 4 | 64 | > 1280 | 2 | > 320 | 4 | 4 | 4 | 2 | 64
CCCCNC(=O)C[N+](C)(C)CCCOc1ccc2ccc(=O)oc2c1CC=C(C)C.[Br-] | 32 | 32 | 32 | 32 | 32 | 128 | > 1280 | 32 | > 40 | 32 | 64 | 64 | 32 | 64
CCCN(CCC)C(=O)C[N+](C)(C)CCCCCOc1ccc2ccc(=O)oc2c1CC=C(C)C.[Br-] | 8 | 8 | 4 | 8 | 8 | 128 | 779 | 8 | 97.4 | 8 | 8 | 16 | 8 | 8
CCCN(CCC)C(=O)C[N+](C)(C)CCCOc1ccc2ccc(=O)oc2c1CC=C(C)C.[Br-] | 32 | 16 | 32 | 32 | 32 | 128 | > 1280 | 32 | > 40 | 16 | 32 | 32 | 32 | 32
CC(C)=CCc1c(OCCCCC[N+](C)(C)CC(=O)N(CC(C)C)CC(C)C)ccc2ccc(=O)oc12.[Br-] | 2 | 1 | 1 | 1 | 2 | 128 | 960 | 1 | 480 | 1 | 1 | 2 | 1 | 1
CCCCN(CCCC)C(=O)C[N+](C)(C)CCCCOc1ccc2ccc(=O)oc2c1CC=C(C)C.[Br-] | 4 | 4 | 2 | 2 | 2 | 64 | > 1280 | 2 | > 640 | 4 | 4 | 8 | 4 | 2
